Data reported in patent US20100016213A1, “USE OF A DITERPENOID COMPOUND FOR TREATING DIABETES” (National Taiwan University, priority 2008, published 2010).

Key:
Type in all cases: in vivo
normal mice [1] = experiment: Lowering plasma glucose level, intraperitoneal injection, normal mice; conditions: normal mice, one hour after administration
Method: (§1) Normal and streptozotocin (STZ)-induced diabetic mice were administered with borapetoside A (5.0 mg/kg), borapetoside C (5.0 mg/kg), glibenclamide (5.0 mg/kg), metformin (500.0 mg/kg), or a vehicle control via intraperitoneal injection. STZ-induced diabetic mice are a well-known mouse model of type I diabetes (insulin dependent). See, e.g., Liu I M, et al., Neuroscience Letters 2001; 307: 81-84. Glibenclamide and metformin serve as two positive controls in this study.
(§2) The plasma glucose levels of the treated mice were determined before and one hour after administration. The activity of lowering plasma glucose levels (AL) is calculated following the formula: […]
(§3) Borapetoside C was administered to normal mice at 0.1, 1.0, 3.0, and 5.0 mg/kg and to STZ-diabetic mice at 0.1, 1.0, 3.0, and 5.0 mg/kg. The plasma glucose levels of the treated mice were examined before and after treatment.

STZ-diabetic mice (IDDM) [2] = experiment: Plasma insulin levels before and after treatment (Insulin ELISA), STZ-diabetic mice; conditions: for Plasma insulin, Pre-treatment: before treatment; for Plasma insulin, post-treatment: one hour after treatment
Method: (§4) Normal mice, STZ-induced diabetic mice, and diet-induced diabetic mice were administered with a vehicle control, borapetoside A (5.0 mg/kg), borapetoside C (at various doses), glibenclamide (5.0 mg/kg) or metformin (500 mg/kg) by intraperitoneal injection. These mice were examined for their blood insulin levels before and one hour after treatment, using the Insulin(Rat) ELISA kit obtained from Penisula Lab. Inc., San Carlos, Calif., USA.

normal mice [3] = experiment: Plasma insulin levels before and after treatment (Insulin ELISA), normal mice; conditions: 5.0 mg/kg i.p.; for Plasma insulin, Pre-treatment: before treatment; for Plasma insulin, post-treatment: one hour after treatment
Method: as §4

[4] = system: STZ-induced diabetic mice; experiment: Lowering plasma glucose level, intraperitoneal injection, STZ-induced diabetic mice (type I diabetes model); conditions: one hour after administration
Method: as §1, §2, §3

[5] = system: DIO-induced diabetic mice; experiment: Lowering plasma glucose level, intraperitoneal injection, diet-induced obesity diabetic mice (type II diabetes model); conditions: one hour after administration
Method: Normal and diet-induced obesity diabetic mice (“DIO-induced diabetic mice) were administered with borapetoside A (5.0 mg/kg), borapetoside C (5.0 mg/kg), glibenclamide (5.0 mg/kg), metformin (500.0 mg/kg), or a vehicle control via intraperitoneal injection. DIO-induced diabetic mice are a well-known mouse model of type II diabetes (non-insulin dependent). See Liu et al., J Mol. Endocrinol. 2008.
The plasma glucose levels of the treated mice were determined before and one hour after administration. The activities of these compounds for lowering plasma glucose levels were calculated as described above.
Borapetoside C was administered to DIO-induced diabetic mice at 0.1, 1.0, 3.0, and 5.0 mg/kg and the plasma glucose levels were examined before and after administration. The basal plasma glucose concentration in diet-induced diabetic mice (untreated) was 174.6±7.7 mg/dL. One hour after treatment, the plasma glucose levels in mice treated with vehicle control, 0.1 mg/kg borapetoside C, 1.0 mg/kg borapetoside C, 3.0 mg/kg borapetoside C, and 5.0 mg/kg borapetoside C were 172.5±10.9 mg/dL, 170.5±6.8 mg/dL, 127.9±6.0 mg/dL, 121.3±4.3 mg/dL and 119.9±4.6 mg/dL, respectively.

[6] = system: Diet-induced diabetic (NIDDM) mice; experiment: Plasma insulin levels before and after treatment (Insulin ELISA), diet-induced diabetic mice; conditions: 5.0 mg/kg i.p.; for Plasma insulin, Pre-treatment: before treatment; for Plasma insulin, post-treatment: one hour after treatment
Method: as §4

normal mice [7] = experiment: Lowering plasma glucose levels via oral administration, normal mice; conditions: oral 10.0 mg/kg, sixty minutes after treatment, mean ± SEM, six animals
Method: (§5) Normal, STZ-induced diabetic mice, and diet-induced diabetic mice were administered orally with 10.0 mg/kg borapetoside C, glibenclamide or metformin as a positive control, and a vehicle control. The plasma glucose levels of the treated mice were determined before and sixty minutes after treatment and the results thus obtained were shown in Table 3 below.

[8] = system: DIO-induced diabetic mice; experiment: Intraperitoneal glucose tolerance test (IPGTT), DIO-induced diabetic mice; conditions: diet-induced diabetic mice, borapetoside C 5.0 mg/kg
Method: (§6) Normal ICR mice and DIO-induced diabetic mice, treated with borapetoside C (5.0 mg/kg), a vehicle control, or glibenclamide (positive control), were subjected to an intraperitoneal glucose tolerance test (IPGTT) as described in Lamont et al., Diabetes 2008; 57: 190-198. More specifically, glucose (2.0 mg/g body weight) was administered via IP injection to normal and DIO mice and blood samples were drawn from the treated mice before and 30, 60, 120, and 150 min after glucose administration for examination of glucose levels.
In diet-induced diabetic mice treated with borapetoside C, the vehicle control, and glibenclamide, the basal plasma glucose concentrations were 181.6±12.3 mg/dL, 183.1±2.9 mg/dL, and 185.3±7.7 mg/dL, respectively. Thirty minutes after intraperitoneal glucose injection, the plasma glucose concentration was elevated to 405.6±8.9 mg/dL in vehicle-treated mice, to 343.5±11.2 mg/dL in borapetoside C-treated mice, or to 339.1±15.4 mg/dL in glibenclamide-treated mice.

Normal ICR mice = experiment: Intraperitoneal glucose tolerance test (IPGTT), normal ICR mice; conditions: borapetoside C 5.0 mg/kg
Method: as §6
In normal mice treated with borapetoside C, the vehicle control, and glibenclamide, the basal plasma glucose concentrations were 106.8±4.7 mg/dL, 114.7±4.6 mg/dL, and 104.9±3.1 mg/dL, respectively. Thirty minutes after intraperitoneal glucose injection, the plasma glucose concentration was elevated to 346.2±14.7 mg/dL in vehicle-treated mice, to 292.9±10.9 mg/dL in borapetoside C-treated mice, or to 273.4±13.6 mg/dL in glibenclamide-treated mice.

[9] = system: Diet-induced diabetic mice (NIDDM); experiment: Lowering plasma glucose levels via oral administration, diet-induced diabetic mice; conditions: oral 10.0 mg/kg, sixty minutes after treatment, mean ± SEM, six animals
Method: as §5

STZ-diabetic mice (IDDM) [10] = experiment: Lowering plasma glucose levels via oral administration, STZ-diabetic mice; conditions: oral 500.0 mg/kg, sixty minutes after treatment, mean ± SEM, six animals
Method: as §5

[11] = system: DIO-induced diabetic mice(NIDDM); experiment: Glycogen content in skeletal muscle, DIO-induced diabetic mice; conditions: 30 minutes after injection
Method: (§7) Normal, STZ-induced diabetic, and DIO-induced diabetic mice were intraeritoneally injected with borapetoside C (5 mg/kg) and Actrapid (0.5 IU/kg; a short-acting insulin provided by Novo Nordisk) or metformin (500 mg/kg). Their glycogen contents in skeletal muscle were determined 30 minutes after injections.

[12] = system: liver phosphoenolpyruvate carboxykinase (PEPCK); experiment: Liver PEPCK levels by western blot in STZ-induced mice; conditions: borapetoside C 5.0 mg/kg, twice per day for 7 days, insulin dose not given
Method: To characterize the effect of borapetoside C on liver glucose utilization, levels of liver phosphoenolpyruvate carboxykinase (PEPCK) were examined by western blot analysis in STZ-induced mice treated with borapetoside C (5.0 mg/kg, twice per day for 7 days), insulin, or a vehicle control.

normal mice [13] = experiment: Insulin sensitivity: plasma glucose reduction with insulin plus borapetoside C or vehicle, normal mice; conditions: thirty minutes after insulin
Method: (§8) The effect of borapetoside C on insulin sensitivity was tested following the method described in Liu, et al., Clinical and Experimental Pharmacology and Physiology 2005; 32: 649-654. Normal mice (n=6), STZ-induced diabetic mice (n=5), and DIO-induced diabetic mice (n=7) were treated with insulin at various doses (i.e., 0.1 IU/kg, 0.5 IU/kg, and 1.0 IU/kg) together with either borapetoside C (0.1 mg/kg) or a vehicle control. Their plasma glucose levels were examined before and thirty minutes after insulin administration. The activity of lowering plasma glucose levels (AL) was calculated following the formula described in Example 2 above.

[14] = system: DIO-induced diabetic mice; experiment: Insulin sensitivity: plasma glucose reduction with insulin plus borapetoside C or vehicle, DIO-induced diabetic mice; conditions: thirty minutes after insulin
Method: as §8

normal mice [15] = experiment: Glycogen content in skeletal muscle, normal mice; conditions: 0.5 IU/kg i.p., 30 minutes after injection
Method: as §7

STZ-diabetic mice(IDDM) = experiment: Glycogen content in skeletal muscle, STZ-diabetic mice; conditions: 0.5 IU/kg i.p., 30 minutes after injection
Method: as §7

[16] = system: STZ-induced diabetic mice; experiment: Insulin sensitivity: plasma glucose reduction with insulin plus borapetoside C or vehicle, STZ-induced diabetic mice; conditions: thirty minutes after insulin
Method: as §8

[17] = 5.0 mg/kg intraperitoneal injection
[18] = 500.0 mg/kg intraperitoneal injection
[19] = Insulin 0.1 IU/kg together with Vehicle
[20] = Insulin 0.5 IU/kg together with Vehicle
[21] = Insulin 1.0 IU/kg together with Vehicle

## C[C@@]12C[C@@H](c3ccoc3)OC(=O)[C@@H]1C[C@@H]1OC(=O)[C@@]3(O)[C@@H](O[C@@H]4O[C@H](CO)[C@@H](O)[C@H](O)[C@H]4O)CC[C@@H]2[C@@]13C [borapetoside A]
Normal mice [1]; [17]
  Activities of Lowering Plasma Glucose Levels (AL): 49.4 ± 4.8%
STZ-diabetic mice (IDDM) [2]; 5.0 mg/kg i.p.
  Plasma insulin, Pre-treatment: 16.0 ± 4.1 pmol/L
  Plasma insulin, post-treatment: 18.7 ± 8.4 pmol/L
Normal mice [3]
  Plasma insulin, Pre-treatment: 56.0 ± 2.8 pmol/L
  Plasma insulin, post-treatment: 117.6 ± 10.8 pmol/L
[4]; [17]
  Activities of Lowering Plasma Glucose Levels (AL): 54.3 ± 6.3%
[5]; [17]
  AL (activity of lowering plasma glucose levels): 29.7±6.1%
[6]
  Plasma insulin, Pre-treatment: 106.6 ± 14.6 pmol/L
  Plasma insulin, post-treatment: 173.8 ± 26.9 pmol/L

## COc1ccc(Cl)cc1C(=O)NCCc1ccc(S(=O)(=O)NC(=O)NC2CCCCC2)cc1 [glibenclamide, reference compound]
Normal mice [1]; [17]
  Activities of Lowering Plasma Glucose Levels (AL): 19.3 ± 1.6%
Normal mice [3]
  Plasma insulin, Pre-treatment: 50.8 ± 3.6 pmol/L
  Plasma insulin, post-treatment: 149.5 ± 15.0 pmol/L
[4]; [17]
  Activities of Lowering Plasma Glucose Levels (AL): 3.2 ± 1.9%
Normal mice [7]
  Activity of lowing plasma glucose levels (%): 25.9 ± 3.5 %
[8]; before glucose injection
  basal plasma glucose concentration (IPGTT): 185.3 ± 7.7 mg/dL
[8]; glucose 2.0 mg/g body weight IP, vehicle 405.6±8.9
  plasma glucose concentration thirty minutes after intraperitoneal glucose injection (IPGTT): 339.1 ± 15.4 mg/dL
[5]; [17]
  AL (activity of lowering plasma glucose levels): 25.8±2.1%
Normal ICR mice; before glucose injection
  basal plasma glucose concentration (IPGTT): 104.9 ± 3.1 mg/dL
Normal ICR mice; glucose 2.0 mg/g body weight IP, vehicle 346.2±14.7
  plasma glucose concentration thirty minutes after intraperitoneal glucose injection (IPGTT): 273.4 ± 13.6 mg/dL
[9]
  Activity of lowing plasma glucose levels (%): 34.9 ± 4.0 %
[6]
  Plasma insulin, Pre-treatment: 119.3 ± 9.6 pmol/L
  Plasma insulin, post-treatment: 197.0 ± 18.8 pmol/L

## CN(C)C(=N)N=C(N)N [metformin, reference compound]
Normal mice [1]; [18]
  Activities of Lowering Plasma Glucose Levels (AL): 20.0 ± 2.5%
STZ-diabetic mice (IDDM) [2]; 500 mg/kg i.p.
  Plasma insulin, post-treatment: 15.1 ± 1.5 pmol/L
STZ-diabetic mice (IDDM) [2]
  Plasma insulin, Pre-treatment: 13.5 ± 1.1 pmol/L
[4]; intraperitoneal injection
  Activities of Lowering Plasma Glucose Levels (AL): 34.1 ± 5.5%
STZ-diabetic mice (IDDM) [10]
  Activity of lowing plasma glucose levels (%): 18.1 ± 1.9 %
[11]; 500 mg/kg i.p.
  Glycogen content (μmol/g wet weight): 23.5 ± 0.9 μmol/g wet weight
[5]; [18]
  AL (activity of lowering plasma glucose levels): 30.7±0.6%

## Insulin: Actrapid, a short-acting insulin provided by Novo Nordisk [reference compound]
[12]
  liver PEPCK levels versus vehicle control-treated mice (western blot): much lower
Normal mice [13]; [19]
  AL (%): 14.6 ± 0.8%
Normal mice [13]; [20]
  AL (%): 37.5 ± 1.1%
Normal mice [13]; [21]
  AL (%): 56.8 ± 1.9%
[14]; [19]
  AL (%): 19.5 ± 1.5%
[14]; [20]
  AL (%): 27.5 ± 2.6%
[14]; [21]
  AL (%): 32.0 ± 1.1%
[11]; 0.5 IU/kg i.p.
  Glycogen content (μmol/g wet weight): 20.2 ± 0.6 μmol/g wet weight
Normal mice [15]
  Glycogen content (μmol/g wet weight): 30.2 ± 2.0 μmol/g wet weight
STZ-diabetic mice(IDDM)
  Glycogen content (μmol/g wet weight): 30.0 ± 1.0 μmol/g wet weight
[16]; [19]
  AL (%): 8.7 ± 1.6%
[16]; [20]
  AL (%): 11.5 ± 0.6%
[16]; [21]
  AL (%): 24.0 ± 1.3%
